In patent US5658935A, “Heterocycles, their preparation and their use” (Hoechst Aktiengesellschaft, priority 1993, dated 1997):
Like-named read-outs stand apart in the source and are kept apart here.

Tests used:
[1] = test system: gel-filtered human platelets; assay: Inhibition of the aggregation of gel-filtered human platelets after ADP or thrombin stimulation; format: cell-based; details: Platelet
Method: (§1) The compounds are tested in particular for their inhibitory effect on blood platelet aggregation and the adhesion of fibrinogen to blood platelets. Gel-filtered blood platelets from human donor blood are used, which are activated with ADP or thrombin.
As a functional test, the inhibition of the aggregation of gel-filtered human platelets is measured after ADP or thrombin stimulation by the compounds according to the invention. The IC50 value of the inhibition is indicated (reference: G. A. Marguerie et al., J. Biol. Chem. 254 (1979), 5357-5363).
(§2) On testing of the inhibition of fibrinogen binding and the inhibition of aggregation, the following results are obtained for the compounds of the examples which follow: […]

[2] = target: T1, fibrinogen receptor (glycoprotein IIb/IIIa) (Homo sapiens, UniProt P05106+P08514); assay: Inhibition of the binding of 125I-fibrinogen to its receptor (glycoprotein IIb/IIIa) on intact, gel-filtered human platelets; details: after stimulation with ADP (10 μM)
T1 construct: on intact, gel-filtered human platelets; from tissue; host or cells: gel-filtered blood platelets from human donor blood
Method: as §1
The inhibition of the binding of fibrinogen to its receptor (glycoprotein IIb/IIIa) on intact, gel-filtered human platelets by the compounds according to the invention is tested. The Ki value of the inhibition of binding of […] after stimulation with ADP (10 μM) is indicated. (Reference: J. S. Bennett and G. Vilaire, J. Clin. Invest. 64 (1979) 1393-1401; E. Kornecki et al., J. Biol. Chem. 256 (1981), 5695-5701; G. A. Marguerie et al., J. Biol. Chem. 254 (1979) 5357-5363; G. A. Marguerie et al., J. Biol. Chem. 255 (1980) 154-161.)
as §2

[3] = ADP stimulation, read-out: Inhibition of platelet aggregation, ADP (IC50)
[4] = thrombin stimulation, read-out: Inhibition of platelet aggregation, thrombin (IC50)

T1 sequence (P08514 32-887 limits assumed): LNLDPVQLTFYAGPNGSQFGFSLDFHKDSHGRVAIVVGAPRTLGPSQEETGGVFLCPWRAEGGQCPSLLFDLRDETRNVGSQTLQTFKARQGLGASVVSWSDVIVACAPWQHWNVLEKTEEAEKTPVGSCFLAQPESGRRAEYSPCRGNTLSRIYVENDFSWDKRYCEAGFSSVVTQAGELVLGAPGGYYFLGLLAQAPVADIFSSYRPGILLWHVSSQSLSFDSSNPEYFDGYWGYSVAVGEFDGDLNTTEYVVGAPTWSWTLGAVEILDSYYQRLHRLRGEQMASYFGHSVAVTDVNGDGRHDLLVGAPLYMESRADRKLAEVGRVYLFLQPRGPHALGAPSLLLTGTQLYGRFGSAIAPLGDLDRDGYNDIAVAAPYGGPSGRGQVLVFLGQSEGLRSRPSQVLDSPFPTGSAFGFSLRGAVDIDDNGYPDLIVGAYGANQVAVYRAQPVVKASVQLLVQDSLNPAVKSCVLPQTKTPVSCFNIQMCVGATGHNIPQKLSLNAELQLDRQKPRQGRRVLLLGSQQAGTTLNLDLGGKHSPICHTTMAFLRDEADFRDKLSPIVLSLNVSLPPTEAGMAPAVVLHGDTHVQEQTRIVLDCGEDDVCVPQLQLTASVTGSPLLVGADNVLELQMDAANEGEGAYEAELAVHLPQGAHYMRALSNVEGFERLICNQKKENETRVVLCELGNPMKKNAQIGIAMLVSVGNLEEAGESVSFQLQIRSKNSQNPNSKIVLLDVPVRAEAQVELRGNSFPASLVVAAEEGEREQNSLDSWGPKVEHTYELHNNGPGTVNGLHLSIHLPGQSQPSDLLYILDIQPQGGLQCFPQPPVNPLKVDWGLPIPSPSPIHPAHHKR
T1 sequence (P08514 891-1039 limits assumed): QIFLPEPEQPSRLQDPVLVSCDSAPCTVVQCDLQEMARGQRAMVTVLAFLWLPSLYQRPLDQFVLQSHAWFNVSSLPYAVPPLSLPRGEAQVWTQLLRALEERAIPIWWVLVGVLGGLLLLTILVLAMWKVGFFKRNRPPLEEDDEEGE
T1 sequence (P05106 27-788): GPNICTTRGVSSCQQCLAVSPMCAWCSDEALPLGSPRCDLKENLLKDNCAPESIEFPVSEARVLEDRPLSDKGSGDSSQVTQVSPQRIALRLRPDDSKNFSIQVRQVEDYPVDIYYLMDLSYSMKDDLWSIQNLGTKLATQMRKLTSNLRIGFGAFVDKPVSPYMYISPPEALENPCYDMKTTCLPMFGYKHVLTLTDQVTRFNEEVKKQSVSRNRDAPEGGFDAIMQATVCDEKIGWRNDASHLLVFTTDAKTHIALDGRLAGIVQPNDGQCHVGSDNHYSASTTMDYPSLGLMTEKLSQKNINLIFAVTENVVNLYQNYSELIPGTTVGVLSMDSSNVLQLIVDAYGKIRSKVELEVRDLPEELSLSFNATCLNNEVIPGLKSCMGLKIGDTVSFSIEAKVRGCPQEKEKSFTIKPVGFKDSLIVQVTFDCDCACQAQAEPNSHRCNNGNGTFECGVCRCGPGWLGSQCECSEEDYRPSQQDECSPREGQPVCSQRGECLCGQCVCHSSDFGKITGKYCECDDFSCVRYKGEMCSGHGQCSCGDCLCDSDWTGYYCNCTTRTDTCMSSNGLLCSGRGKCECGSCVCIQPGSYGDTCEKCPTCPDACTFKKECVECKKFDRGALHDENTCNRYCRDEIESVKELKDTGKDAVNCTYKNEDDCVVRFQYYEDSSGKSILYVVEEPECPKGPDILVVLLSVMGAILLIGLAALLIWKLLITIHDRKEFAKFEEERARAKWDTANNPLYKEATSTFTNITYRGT

| IC50 [1, 3] [µM] | IC50 [1, 4] [µM] | Ki [2] [µM] | Compound |
| --- | --- | --- | --- |
| 20 | 9 | – | N=C(N)c1ccc(CC2CC(=O)N(CC(=O)NC(CC(=O)O)c3cccc(O)c3)C2=O)cc1 (racemic) [Example 16, 3-(R,S)-3-<{3-[4-(Aminoiminomethyl)benzyl]-2,5-dioxopyrrolidin-1-yl}acetamido>-3-(3-hydroxyphenyl)propionate] |
| 100 | 100 | – | N=C(N)c1ccc(CC2CC(=O)N(CC(=O)NC(CCc3ccccc3)C(=O)O)C2=O)cc1 (racemic) [Example 17, {3-[4-(Aminoiminomethyl)benzyl]-2,5-dioxopyrrolidin-1-yl}acetyl-D,L-homophenylalanine] |
| 100 | 70 | – | N=C(N)c1ccc(CC2CC(=O)N(CC(=O)N[C@@H](Cc3c[nH]c4ccccc34)C(=O)O)C2=O)cc1 (stereo partly drawn) [Example 18, {3-[4-(Aminoiminomethyl)benzyl]-2,5-dioxopyrrolidin-1-yl}acetyl-L-tryptophan] |
| 4 | 1 | – | O=C(O)C[C@H](NC(=O)CN1C(=O)CC(CC2CCNCC2)C1=O)C(=O)N[C@H](C(=O)O)c1ccccc1 (stereo partly shown) [Example 19] |

The remaining lines, values behind:

| Compound | IC50 [1, 3] [µM] | IC50 [1, 4] [µM] | Ki [2] [µM] |
| --- | --- | --- | --- |
| COC(=O)C(CCc1ccccc1)NC(=O)CN1C(=O)CC(Cc2ccc(C(=N)N)cc2)C1=O (racemic) [Example 13, {3-[4-(Aminoiminomethyl)benzyl]-2,5-dioxopyrrolidin-1-yl}acetyl-D,L-homophenylalanine methyl ester] | 100 | 100 | – |
| COC(=O)CC(NC(=O)CN1C(=O)CC(Cc2ccc(C(=N)N)cc2)C1=O)c1cccc(O)c1 (racemic) [Example 15, Methyl 3-(R,S)-3-<{3-[4-(aminoiminomethyl)benzyl]-2,5-dioxopyrrolidin-1-yl}acetamido>-3-(3-hydroxyphenyl)propionate] | 200 | 200 | – |
| N=C(N)c1ccc(CC2CC(=O)N(CC(=O)N[C@@H](CC(=O)O)C(=O)N[C@H](C(=O)O)c3ccccc3)C2=O)cc1 (stereo partly drawn) [Example 1, {3-[4-(Aminoiminomethyl)benzyl]-2,5-dioxopyrrolidin-1-yl}acetyl-L-aspartyl-L-phenylglycine] | 0.2 | 0.09 | 0.043 |
| COC(=O)[C@H](Cc1c[nH]c2ccccc12)NC(=O)CN1C(=O)CC(Cc2ccc(C(=N)N)cc2)C1=O (stereo partly drawn) [Example 12, {3-[4-(Aminoiminomethyl)benzyl]-2,5-dioxopyrrolidin-1-yl}acetyl-L-tryptophan methyl ester] | 100 | 80 | – |
| CC(C)OC(=O)C[C@H](NC(=O)CN1C(=O)CC(Cc2ccc(C(=N)N)cc2)C1=O)C(=O)N[C@H](C(=O)OC(C)C)c1ccccc1 (stereo partly drawn) [Example 14, {3-[4-(Aminoiminomethyl)benzyl]-2,5-dioxopyrrolidin-1-yl}acetyl-L-(β-isopropyl)aspartyl-L-phenylglycine isopropyl ester] | 20 | 35 | – |
